# Test results published in paper PMC10723784, “Investigation of the cytotoxicity induced by cannabinoids on human ovarian carcinoma cells” (Pharmacology Research & Perspectives, 2023).
# Values joined by “and” are separate entries in the source; they are usually repeats but may differ in a detail not shown here. Equal entries are not always repeated. Where two headings read alike, the source gives them in different places.
# Key:
# [1] = test system: A2780 cells; assay: MTT cytotoxicity assay, A2780 cells; settings: for Combination index (CI), carboplatin + CBD: A2780, 100 nM CBD
# Procedure: (§1) In separate experiments, cells were seeded in 96‐well plates and after 24 h elapsed they were exposed to different concentrations of drugs or vehicle. Cells were then left in the incubator for a further 24 or 48 h. Then the media was replaced with fresh media containing no drug and the cells were left in the incubator. MTT assay was performed after 96 h elapsed from the time when cells were exposed to drugs or vehicle.
# (§2) The cells were then left in the incubator and MTT assay was performed 96 h following the initial exposure to the drugs.
# (§3) The selective index (SI) is the ratio of mean IC50 values for non‐cancer cells to cancer cells. […] While the isobologram can be considered predominantly as a graphical depiction of drug interactions, the combination index (CI) is a quantitative representation. It relates the actual drug concentration in the combination to the concentration of the single drug that achieves the same effect. […] Here, CI analysis was used to investigate combinations at 50% cytotoxicity. To this end the IC50 of the viability dose–response curves were determined by non‐linear regression curve fit analysis (GraphPad Prism, v5.00).
# (§4) CIA+B is the combination index of A and B; C A the concentration of A applied in combination; C B the concentration of B applied in combination; IC50 A the IC50 of drug A when it was applied individually to the cells; IC50 B = IC50 of drug B when it was applied individually to the cells.
# [2] = test system: A2780/CP70 cells; assay: MTT cytotoxicity assay, A2780/CP70 cells; settings: for Combination index (CI), carboplatin + CBD: A2780/CP70, 100 nM CBD; for Combination index (CI), carboplatin + CBG: A2780/CP70, 100 nM CBG
# Procedure: as §1, §2, §3, §4
# [3] = test system: A2780 cells; assay: Cell cycle analysis (DAPI, NC-3000), A2780 cells; assay type: cell-based, human; settings: 48 h
# Procedure: (§5) Cells were seeded in T25 flasks at 4 × 10^5 cells per flask and were incubated for 48 h or until they reached confluency. […] After the incubation time elapsed cells were suspended in PBS with a density closer to 1 × 10^6cells/mL. The cells were washed twice with 1× PBS before the addition of 250 μL of lysis buffer (solution 10) supplemented with 10 μg/mL DAPI (solution 12) was added to the samples and incubated for 5 min at 37°C. After incubation, 250 μL of stabilization buffer (solution 11) was added. 12.5 μL of samples were loaded on to an A‐8 slide and were analyzed using the NC‐3000 system.
# [4] = test system: A2780/CP70 cells; assay: Cell cycle analysis (DAPI, NC-3000), A2780/CP70 cells; assay type: cell-based, human; settings: 48 h
# Procedure: as §5
# [5] = test system: A2780 cells; assay: Mitochondrial membrane potential assay (JC-1), A2780 cells; assay type: cell-based, human; settings: A2780, 10-50 μM, 24 h, dose-dependent
# Procedure: (§6) The mitochondrial membrane potential assay was performed to detect the loss in mitochondrial potential (de‐polarization), which is a vital step in apoptosis.[36] Cells were seeded in T25 flasks at 4 × 10^5 cells per flask and were incubated for 48 h or until they reached confluency. After the incubation time elapsed, drugs at concentrations of 10, 30, and 50 μM or vehicle were added to the flasks and further incubated for 24 h. After 24 h elapsed, the cells were harvested and suspended in PBS. Cell viability and number were determined by the cell viability assay using via1 cassettes on NC‐3000 system. The samples were diluted in PBS to 1 × 10^6 cells/mL and 2.5 μg/mL of JC‐1 dye was added to each sample. JC‐1 is a […] dye, which stains as fluorescent red as it aggregates in the mitochondrial matrix. In the absence of mitochondrial membrane potential, JC‐1 localizes in the cytosol in its fluorescent green form. Following the addition of JC‐1, the cells were incubated for 10–30 min at 37°C. […] 12.5 μL of samples were loaded on to an A‐8 slide and were analyzed using the NC‐3000 image cytometry. The degree of apoptosis (in proportional to the loss in mitochondrial membrane potential) was measured using a scatter plot of JC‐1 red fluorescence versus JC‐1 green fluorescence.
# [6] = test system: A2780/CP70 cells; assay: Mitochondrial membrane potential assay (JC-1), A2780/CP70 cells; assay type: cell-based, human; settings: A2780/CP70, 10-50 μM, 24 h, dose-dependent
# Procedure: as §6
# [7] = test system: caspase 3/7 activity in A2780 cells; assay: Caspase 3/7 assay, A2780 cells; assay type: cell-based, human; settings: A2780, 24 h contact time, dose-dependent, significant above 10 μM
# Procedure: (§7) Sensolyte homogenous caspase 3/7 assay kit was used to determine the caspase activity in ovarian cancer cells when treated with CBG. Cells were seeded in 96‐well plate at 6 × 10^3 cells per well and were incubated for 24 h. CBG was added in concentrations of 10, 20, 30, and 50 μM and incubated for a further 24 h. After the incubation time elapsed, the media was removed and replaced with 150 μL/well of fresh complete media. Caspase 3/7 solution was prepared by diluting the caspase substrate 1:100 with DTT‐containing assay buffer. 50 μL/well caspase substrate was added to the plates, and the cells were incubated for 30 min. Ac‐DEVD‐AMC serves as the fluorogenic indicator for assaying caspase‐3/7 activity. Ac‐DEVD‐AMC generates the AMC fluorophore in the presence of caspase 3/7, which produces bright blue fluorescence. The fluorescence was measured by the FLOUstar OPTIMA plate reader with the excitation at 354 nm and emission at 442 nm.
# (§8) The level of caspase 3/7 was also determined using Apotox‐Glo Triple assay. Cells were seeded and drugs were added as described above in Section 2.6.1. After 24 h incubation, caspase 3/7 reagent was prepared by mixing caspase buffer and substrate and 100 μL of reagent was added to each well for 30 min incubation at room temperature. […] The luminescence was measured by the FLOUstar OPTIMA plate reader.
# [8] = test system: caspase 3/7 activity in A2780/CP70 cells; assay: Caspase 3/7 assay, A2780/CP70 cells; assay type: cell-based, human; settings: A2780/CP70, 24 h contact time, dose-dependent, significant above 10 μM
# Procedure: as §7, §8
# [9] = high doses such as 1500 mg/day; cited from earlier work
# [10] = MTT cytotoxicity assay, non-cancer PNT2 cells; settings: human, PNT2 normal prostate epithelial cells
# Procedure: (§9) Human ovarian carcinoma cells, A2780 (sensitive to chemotherapeutics), A2780/CP70 (resistant to chemotherapeutics), and non‐cancerous cells including PNT2 (normal prostate epithelial cell line), and/or ARPE19 (human retinal pigment cell line) were maintained according to the ATCC and ECACC guidelines.
# (§10) In vitro chemosensitivity assays were performed using the MTT assay as previously described.[32], [33] Briefly, at 70% confluency, cells were seeded in 96‐well plates at a density of 2000 cells/well. […] After the allocated contact time had elapsed, the media was removed and 0.5% (w/v) MTT solution diluted in complete media (200 μL) was added to each well. Following a 4 h incubation, the supernatants were removed, and the formazan crystals were dissolved in dimethylsulfoxide (150 μL). The absorbance was read at 540 nm on a Tecan Infinite 50 plate UV reader.
# [11] = MTT cytotoxicity assay, non-cancer ARPE19 cells; settings: human, ARPE19 non-cancer retinal pigment cells
# Procedure: as §9, §10
structure (smiles),measurement,setting,value
N.N.O=C([O-])C1(C(=O)[O-])CCC1.[Pt+2] [carboplatin],"Combination index (CI), carboplatin + CBD","[1]; 24 h, at 50% cytotoxicity",0.36
same,"Combination index (CI), carboplatin + CBD","[1]; 48 h, at 50% cytotoxicity",0.17
same,"Combination index (CI), carboplatin + CBD","[1]; 72 h, at 50% cytotoxicity",0.15
same,"Combination index (CI), carboplatin + CBD","[1]; 96 h, at 50% cytotoxicity",0.096
same,"Combination index (CI), carboplatin + CBG","[1]; A2780, 100 nM CBG, 96 h, at 50% cytotoxicity",0.55
same,IC50,"[1]; read-out: IC50 cytotoxicity, recovery, A2780, 24 h exposure then drug washed out, MTT at 96 h",7.9 ± 0.5 µM
same,IC50,"[1]; read-out: IC50 cytotoxicity, recovery, A2780, 48 h exposure then drug washed out, MTT at 96 h",4.7 ± 0.2 µM
same,IC50,"[1]; read-out: IC50 cytotoxicity, recovery, A2780, 48 h exposure then drug washed out, MTT at 96 h, listed as Carboplatin",4.8 ± 0.2 µM
same,IC50,"[1]; read-out: IC50 cytotoxicity, recovery, A2780, 72 h exposure then drug washed out, MTT at 96 h",2.6 ± 0.5 µM
same,IC50,"[1]; read-out: IC50 cytotoxicity, A2780, 24 h contact time, MTT",> 100 µM
same,IC50,"[1]; read-out: IC50 cytotoxicity, A2780, 48 h contact time, MTT",17.3 ± 0.6 µM
same,IC50,"[1]; read-out: IC50 cytotoxicity, A2780, 72 h contact time, MTT",4.3 ± 0.7 µM
same,IC50,"[1]; read-out: IC50 cytotoxicity, A2780, 96 h contact time, MTT",2.57 µM and 2.5 µM and 2.6 µM
same,IC50,"[1]; read-out: IC50 cytotoxicity, A2780, 96 h contact time, MTT, listed as Carboplatin",2.6 ± 0.3 µM
same,"Combination index (CI), carboplatin + CBD",[2]; 24 h,0.85
same,"Combination index (CI), carboplatin + CBD",[2]; 48 h,0.78
same,"Combination index (CI), carboplatin + CBD",[2]; 72 h,0.8
same,"Combination index (CI), carboplatin + CBD",[2]; 96 h,0.57
same,"Combination index (CI), carboplatin + CBG",[2]; 48 h,0.78
same,"Combination index (CI), carboplatin + CBG",[2]; 72 h,0.71
same,"Combination index (CI), carboplatin + CBG",[2]; 96 h,0.65
same,IC50,"[2]; read-out: IC50 cytotoxicity, recovery, A2780/CP70, 24 h exposure then drug washed out, MTT at 96 h",66.5 ± 3.4 µM
same,IC50,"[2]; read-out: IC50 cytotoxicity, recovery, A2780/CP70, 48 h exposure then drug washed out, MTT at 96 h",48.7 ± 0.4 µM
same,IC50,"[2]; read-out: IC50 cytotoxicity, recovery, A2780/CP70, 72 h exposure then drug washed out, MTT at 96 h",45.5 ± 2.6 µM
same,IC50,"[2]; read-out: IC50 cytotoxicity, A2780/CP70, 24 h contact time, MTT",> 100 µM
same,IC50,"[2]; read-out: IC50 cytotoxicity, A2780/CP70, 48 h contact time, MTT",> 100 µM
same,IC50,"[2]; read-out: IC50 cytotoxicity, A2780/CP70, 72 h contact time, MTT",48 ± 1.9 µM
same,IC50,"[2]; read-out: IC50 cytotoxicity, A2780/CP70, 96 h contact time, MTT",44.9 ± 3.5 µM
Cc1c(C)c2c(c(C)c1O)CC[C@@](C)(CCC[C@H](C)CCC[C@H](C)CCCC(C)C)O2 [α‐tocopherol],Effect on viability of the cells when used alone,"[1]; alone up to 100 μM, preliminary experiments, cell line not named (A2780 and A2780/CP70 tested)",did not compromise the viability of the cells
COc1ccc(C(=O)c2c(C)n(CCN3CCOCC3)c3cc(I)ccc23)cc1 [AM630],Concentrations at which the antagonist alone induced cytotoxicity,"[1]; A2780, antagonist alone",higher than 1 μM
same,Concentrations at which the antagonist alone induced cytotoxicity,"[2]; A2780/CP70, antagonist alone",higher than 1 μM
"C=C(C)[C@@H]1CCC(C)=C[C@H]1c1c(O)cc(CCCCC)cc1O [CBD, cannabidiol]",IC50,"[1]; Homo sapiens, A2780, 24 h, read-out: IC50 cytotoxicity",12.3 ± 0.7 µM
same,IC50,"[1]; Homo sapiens, A2780, 48 h, read-out: IC50 cytotoxicity",6.8 ± 1.1 µM
same,IC50,"[1]; Homo sapiens, A2780, 72 h, read-out: IC50 cytotoxicity",4.5 ± 0.1 µM
same,IC50,"[1]; Homo sapiens, A2780, 96 h, read-out: IC50 cytotoxicity",3.5 ± 0.2 µM
same,Cytotoxicity,[1]; human,approximately 90%
same,Selectivity index,[2],1.57 and 1.28 and 1.78 and 2.02 and 2.49 and 1.52 and 2.35 and 2.48
same,IC50,"[2]; Homo sapiens, A2780/CP70, 24 h, read-out: IC50 cytotoxicity",16.1 ± 0.6 µM
same,IC50,"[2]; Homo sapiens, A2780/CP70, 48 h, read-out: IC50 cytotoxicity",11.2 ± 0.7 µM
same,IC50,"[2]; Homo sapiens, A2780/CP70, 72 h, read-out: IC50 cytotoxicity",7.3 ± 0.4 µM
same,IC50,"[2]; Homo sapiens, A2780/CP70, 96 h, read-out: IC50 cytotoxicity",5.8 ± 0.8 µM
same,Cells in G0/G1 phase,"[3]; A2780, 10 μM",81.4 ± 1.3%
same,Cells in G0/G1 phase,"[3]; A2780, 30 μM",85 ± 1.5%
same,Cells in S phase,"[3]; A2780, 30 μM",6 ± 1.5%
same,Cells in G0/G1 phase,"[3]; A2780, 50 μM",61.6 ± 1.4%
same,Cells in subG1 phase,"[3]; A2780, 50 μM",11.1 ± 1.0%
same,Cells in G0/G1 phase,"[4]; A2780/CP70, 10 μM",77.4 ± 1.3%
same,Cells in G0/G1 phase,"[4]; A2780/CP70, 30 μM",85.1 ± 1.1%
same,Cells in G0/G1 phase,"[4]; A2780/CP70, 50 μM",64.9 ± 0.9%
same,Cells in subG1 phase,"[4]; A2780/CP70, 50 μM",6 ± 0.9%
same,Percentage of apoptotic cells (loss of mitochondrial membrane potential),[5],induced an increase in the percentage of apoptotic cells
same,Percentage of apoptotic cells (loss of mitochondrial membrane potential),[6],induced an increase in the percentage of apoptotic cells
same,Caspase 3/7 activity,[7],increased the caspase 3/7 activity
same,Caspase 3/7 activity,[8],increased the caspase 3/7 activity
same,Tolerability in humans,[9],well tolerated
same,IC50 at 24 h,[10],40.6 ± 2.3 µM
same,IC50 at 48 h,[10],17.7 ± 2.4 µM
same,IC50 at 72 h,[10],17.2 ± 0.6 µM
same,IC50 at 96 h,[10],14.4 ± 1.6 µM
same,IC50 at 24 h,[11],25.3 ± 1.8 µM
same,IC50 at 48 h,[11],14.4 ± 0.9 µM
same,IC50 at 72 h,[11],13 µM
same,IC50 at 96 h,[11],11.7 ± 1.2 µM
